Reference: paper doi:10.1101/2021.09.30.462449v1 (biorxiv, 2021)

Assays:
Test in all cases: biochemical
Settings in all cases: read-out: % inhibition mean (Z'Lyte)
AKT3 (PKB gamma) = AKT3 (PKB gamma) (Homo sapiens, UniProt Q9Y243)
AMPK (A2/B2/G3) = AMPK (A2/B2/G3) (Homo sapiens, UniProt P54646)
AURKA (Aurora A) = AURKA (Aurora A) (Homo sapiens, UniProt O14965)
BRAF = BRAF (Homo sapiens, UniProt P15056)
BRSK1 (SAD1) = BRSK1 (SAD1) (Homo sapiens, UniProt Q8TDC3)
BTK = BTK (Homo sapiens, UniProt Q06187)
CAMK4 (CaMKIV) = CAMK4 (CaMKIV) (Homo sapiens, UniProt Q16566)
EGFR (ErbB1) T790M L858R = EGFR (ErbB1) T790M L858R (Homo sapiens, UniProt P00533, L858R/T790M)
EPHB1 = EPHB1 (Homo sapiens, UniProt P54762)
FGFR3 V555M = FGFR3 V555M (Homo sapiens, UniProt P22607, V555M)
GRK7 = GRK7 (Homo sapiens, UniProt Q8WTQ7)
HCK = HCK (Homo sapiens, UniProt P08631)
IKBKE (IKK epsilon) = IKBKE (IKK epsilon) (Homo sapiens, UniProt Q14164)
IKBKE (IKK epsilon), sequence (Q14164 whole entry): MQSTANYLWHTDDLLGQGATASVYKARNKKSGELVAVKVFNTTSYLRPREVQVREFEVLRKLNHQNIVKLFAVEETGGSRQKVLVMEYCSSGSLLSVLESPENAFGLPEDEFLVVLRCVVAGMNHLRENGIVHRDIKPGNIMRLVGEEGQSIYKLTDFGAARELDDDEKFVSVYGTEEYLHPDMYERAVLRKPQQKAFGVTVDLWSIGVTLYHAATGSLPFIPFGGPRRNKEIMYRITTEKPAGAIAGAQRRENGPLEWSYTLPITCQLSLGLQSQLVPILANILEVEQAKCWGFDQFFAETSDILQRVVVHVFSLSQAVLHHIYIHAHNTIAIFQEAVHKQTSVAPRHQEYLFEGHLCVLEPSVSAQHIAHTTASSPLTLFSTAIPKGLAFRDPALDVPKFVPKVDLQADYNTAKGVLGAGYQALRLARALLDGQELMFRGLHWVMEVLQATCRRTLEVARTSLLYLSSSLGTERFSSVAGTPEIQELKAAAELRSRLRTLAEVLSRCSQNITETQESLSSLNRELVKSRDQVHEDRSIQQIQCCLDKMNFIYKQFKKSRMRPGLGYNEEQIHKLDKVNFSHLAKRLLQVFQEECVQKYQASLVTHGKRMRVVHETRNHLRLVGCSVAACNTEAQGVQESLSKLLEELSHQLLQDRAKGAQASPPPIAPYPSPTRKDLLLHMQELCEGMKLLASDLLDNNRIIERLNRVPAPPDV

MAP2K2 (MEK2) = MAP2K2 (MEK2) (Homo sapiens, UniProt P36507)
MAP2K2 (MEK2), sequence (P36507 whole entry): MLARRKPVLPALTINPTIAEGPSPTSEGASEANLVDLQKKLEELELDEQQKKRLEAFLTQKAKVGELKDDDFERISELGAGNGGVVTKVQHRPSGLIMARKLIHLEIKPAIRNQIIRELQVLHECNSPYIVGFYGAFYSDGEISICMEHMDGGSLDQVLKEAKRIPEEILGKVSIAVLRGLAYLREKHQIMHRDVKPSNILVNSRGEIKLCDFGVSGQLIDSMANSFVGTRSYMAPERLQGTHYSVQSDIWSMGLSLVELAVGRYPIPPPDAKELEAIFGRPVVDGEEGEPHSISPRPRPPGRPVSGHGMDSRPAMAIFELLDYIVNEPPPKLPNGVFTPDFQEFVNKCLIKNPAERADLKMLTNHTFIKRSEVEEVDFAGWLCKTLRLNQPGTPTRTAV

MAPK12 (p38 gamma) = MAPK12 (p38 gamma) (Homo sapiens, UniProt P53778)
MAPK14 (p38 alpha) = MAPK14 (p38 alpha) (Homo sapiens, UniProt Q16539)
[1] = target: MAPK14 (p38 alpha) Direct (Homo sapiens, UniProt Q16539)
MARK4 = MARK4 (Homo sapiens, UniProt Q96L34)
PAK7 (KIAA1264) = PAK7 (KIAA1264) (Homo sapiens, UniProt Q9P286)
PAK7 (KIAA1264), sequence (Q9P286 whole entry): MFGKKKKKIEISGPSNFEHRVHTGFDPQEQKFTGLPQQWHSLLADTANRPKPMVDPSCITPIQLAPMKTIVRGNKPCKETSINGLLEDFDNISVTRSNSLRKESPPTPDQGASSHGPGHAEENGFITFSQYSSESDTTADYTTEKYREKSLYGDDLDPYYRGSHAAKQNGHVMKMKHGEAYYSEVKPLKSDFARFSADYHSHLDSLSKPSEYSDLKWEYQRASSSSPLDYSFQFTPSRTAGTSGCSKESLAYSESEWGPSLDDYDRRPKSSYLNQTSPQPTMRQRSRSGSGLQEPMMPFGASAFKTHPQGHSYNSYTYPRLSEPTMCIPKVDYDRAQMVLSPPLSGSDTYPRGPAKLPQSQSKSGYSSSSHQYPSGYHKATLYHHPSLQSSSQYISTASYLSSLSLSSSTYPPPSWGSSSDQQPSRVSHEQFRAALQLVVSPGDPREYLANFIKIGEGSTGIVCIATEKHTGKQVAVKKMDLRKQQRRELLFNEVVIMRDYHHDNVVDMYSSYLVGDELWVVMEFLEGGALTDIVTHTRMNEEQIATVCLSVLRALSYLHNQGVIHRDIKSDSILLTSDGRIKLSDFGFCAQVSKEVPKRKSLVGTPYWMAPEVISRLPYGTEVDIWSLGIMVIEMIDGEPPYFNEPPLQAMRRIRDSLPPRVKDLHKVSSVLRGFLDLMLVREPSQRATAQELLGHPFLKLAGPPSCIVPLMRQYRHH

PRKCE (PKC epsilon) = PRKCE (PKC epsilon) (Homo sapiens, UniProt Q02156)
PRKD1 (PKC mu) = PRKD1 (PKC mu) (Homo sapiens, UniProt Q15139)
RET = RET (Homo sapiens, UniProt P07949)
RET Y791F = RET Y791F (Homo sapiens, UniProt P07949, Y791F)
ROCK2 = ROCK2 (Homo sapiens, UniProt O75116)
ROCK2, sequence (O75116 whole entry): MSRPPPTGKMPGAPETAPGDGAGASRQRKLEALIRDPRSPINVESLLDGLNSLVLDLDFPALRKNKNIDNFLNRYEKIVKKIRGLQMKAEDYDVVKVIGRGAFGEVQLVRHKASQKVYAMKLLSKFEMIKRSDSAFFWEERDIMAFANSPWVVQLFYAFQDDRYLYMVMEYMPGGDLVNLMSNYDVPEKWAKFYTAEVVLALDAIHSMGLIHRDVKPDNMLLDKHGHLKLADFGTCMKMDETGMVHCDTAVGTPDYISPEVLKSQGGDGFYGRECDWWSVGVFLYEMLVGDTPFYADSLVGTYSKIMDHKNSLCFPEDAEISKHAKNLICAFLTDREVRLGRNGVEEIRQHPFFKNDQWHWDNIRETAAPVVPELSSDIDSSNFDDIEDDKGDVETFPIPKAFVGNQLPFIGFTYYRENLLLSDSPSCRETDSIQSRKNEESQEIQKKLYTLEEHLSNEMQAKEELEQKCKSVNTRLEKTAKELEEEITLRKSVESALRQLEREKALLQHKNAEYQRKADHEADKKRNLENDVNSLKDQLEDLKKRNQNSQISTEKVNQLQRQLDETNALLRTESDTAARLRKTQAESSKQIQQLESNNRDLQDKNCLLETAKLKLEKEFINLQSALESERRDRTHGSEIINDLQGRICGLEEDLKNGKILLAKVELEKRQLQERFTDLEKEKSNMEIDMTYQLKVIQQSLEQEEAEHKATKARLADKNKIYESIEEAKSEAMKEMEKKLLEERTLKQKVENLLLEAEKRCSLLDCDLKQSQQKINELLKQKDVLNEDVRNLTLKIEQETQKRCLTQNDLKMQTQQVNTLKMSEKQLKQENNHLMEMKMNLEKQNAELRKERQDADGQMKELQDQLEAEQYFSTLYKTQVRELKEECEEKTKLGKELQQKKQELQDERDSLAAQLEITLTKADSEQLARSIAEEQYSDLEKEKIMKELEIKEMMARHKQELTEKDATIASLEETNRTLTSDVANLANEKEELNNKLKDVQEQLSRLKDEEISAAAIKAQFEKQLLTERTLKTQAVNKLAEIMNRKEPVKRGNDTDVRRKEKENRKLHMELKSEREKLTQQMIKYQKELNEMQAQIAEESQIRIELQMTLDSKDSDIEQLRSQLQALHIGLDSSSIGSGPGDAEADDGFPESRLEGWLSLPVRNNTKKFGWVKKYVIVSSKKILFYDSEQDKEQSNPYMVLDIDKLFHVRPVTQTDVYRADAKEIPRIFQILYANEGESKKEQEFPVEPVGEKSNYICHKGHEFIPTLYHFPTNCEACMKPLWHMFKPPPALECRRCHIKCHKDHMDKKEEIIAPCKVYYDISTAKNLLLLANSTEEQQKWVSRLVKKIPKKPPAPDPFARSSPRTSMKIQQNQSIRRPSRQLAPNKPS

RPS6KA2 (RSK3) = RPS6KA2 (RSK3) (Homo sapiens, UniProt Q15349)
RPS6KA2 (RSK3), sequence (Q15349 whole entry): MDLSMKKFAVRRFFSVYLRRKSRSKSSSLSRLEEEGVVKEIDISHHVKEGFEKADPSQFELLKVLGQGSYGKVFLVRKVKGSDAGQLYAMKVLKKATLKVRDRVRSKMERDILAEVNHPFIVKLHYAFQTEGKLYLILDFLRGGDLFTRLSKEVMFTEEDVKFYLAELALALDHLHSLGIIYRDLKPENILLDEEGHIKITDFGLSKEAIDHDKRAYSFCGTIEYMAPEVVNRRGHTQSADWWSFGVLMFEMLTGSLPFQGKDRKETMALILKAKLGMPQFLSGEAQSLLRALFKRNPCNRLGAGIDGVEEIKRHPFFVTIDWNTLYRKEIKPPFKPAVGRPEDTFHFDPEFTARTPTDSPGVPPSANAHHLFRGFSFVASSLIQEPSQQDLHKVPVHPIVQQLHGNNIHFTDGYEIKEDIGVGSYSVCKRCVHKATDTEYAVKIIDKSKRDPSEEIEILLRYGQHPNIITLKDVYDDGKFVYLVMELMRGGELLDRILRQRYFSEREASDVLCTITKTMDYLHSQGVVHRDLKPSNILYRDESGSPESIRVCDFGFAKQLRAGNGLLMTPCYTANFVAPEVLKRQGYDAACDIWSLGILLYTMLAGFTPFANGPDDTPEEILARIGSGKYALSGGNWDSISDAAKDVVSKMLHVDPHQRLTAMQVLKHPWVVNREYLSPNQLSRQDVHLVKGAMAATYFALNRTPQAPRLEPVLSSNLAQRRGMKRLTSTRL

RPS6KA4 (MSK2) = RPS6KA4 (MSK2) (Homo sapiens, UniProt O75676)
SGKL (SGK3) = SGKL (SGK3) (Homo sapiens, UniProt Q96BR1)
STK3 (MST2) = STK3 (MST2) (Homo sapiens, UniProt Q13188)

BRAF, sequence (P15056 whole entry): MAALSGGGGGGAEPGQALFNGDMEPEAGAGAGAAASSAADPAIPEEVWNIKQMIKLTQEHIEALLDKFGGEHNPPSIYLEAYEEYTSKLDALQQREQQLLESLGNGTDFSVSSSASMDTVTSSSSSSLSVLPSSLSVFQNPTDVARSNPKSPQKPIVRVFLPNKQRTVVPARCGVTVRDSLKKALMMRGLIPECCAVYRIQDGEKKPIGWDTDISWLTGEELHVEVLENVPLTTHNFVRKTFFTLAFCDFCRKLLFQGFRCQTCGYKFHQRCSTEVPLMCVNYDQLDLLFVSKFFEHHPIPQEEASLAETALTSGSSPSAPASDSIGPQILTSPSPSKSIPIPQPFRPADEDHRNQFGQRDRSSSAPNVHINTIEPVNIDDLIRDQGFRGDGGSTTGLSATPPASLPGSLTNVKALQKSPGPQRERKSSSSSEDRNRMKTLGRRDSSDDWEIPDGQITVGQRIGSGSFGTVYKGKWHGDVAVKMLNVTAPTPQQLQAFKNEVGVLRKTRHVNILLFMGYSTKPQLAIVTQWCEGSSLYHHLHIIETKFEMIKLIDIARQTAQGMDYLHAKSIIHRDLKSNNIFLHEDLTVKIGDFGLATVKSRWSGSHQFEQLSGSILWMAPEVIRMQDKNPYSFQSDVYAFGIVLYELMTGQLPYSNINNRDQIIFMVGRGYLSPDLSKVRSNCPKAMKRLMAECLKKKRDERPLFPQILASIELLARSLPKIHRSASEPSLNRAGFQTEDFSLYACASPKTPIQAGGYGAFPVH

With `COc1ccc2nc3cc(Cl)ccc3c(Nc3cc(CN4CCCC4)c(O)c(CN4CCCC4)c3)c2n1` [Pyronaridine, 4-[(7-Chloro-2-methoxybenzo[b][1,5]naphthyridin-10-yl)amino]-2,6-bis(1-pyrrolidinylmethyl)phenol phosphate (1:4)] the inhibition at 1 µM (AKT3 (PKB gamma)) was 7%, the inhibition at 1 µM (AMPK (A2/B2/G3)) was 2% and the inhibition at 1 µM (AURKA (Aurora A)) was 9%. The inhibition at 1 µM (BRAF) was 4%, the inhibition at 1 µM (BRSK1 (SAD1)) was 2% and the inhibition at 1 µM (BTK) was 9%. For the same compound, the inhibition at 1 µM (CAMK4 (CaMKIV)) was -5%, the inhibition at 1 µM (EGFR (ErbB1) T790M L858R) was 5% and the inhibition at 1 µM (EPHB1) was 2%. For the same compound, the inhibition at 1 µM (FGFR3 V555M) was -1%, the inhibition at 1 µM (GRK7) was 4% and the inhibition at 1 µM (HCK) was 4%. The inhibition at 1 µM (IKBKE (IKK epsilon)) was 2%, the inhibition at 1 µM (MAP2K2 (MEK2)) was 2% and the inhibition at 1 µM (MAPK12 (p38 gamma)) was 7%. It also gave an inhibition at 1 µM (MAPK14 (p38 alpha)) of 1%, an inhibition at 1 µM [1] of 3% and an inhibition at 1 µM (MARK4) of -4%. For the same compound, the inhibition at 1 µM (PAK7 (KIAA1264)) was -5%, the inhibition at 1 µM (PRKCE (PKC epsilon)) was 6% and the inhibition at 1 µM (PRKD1 (PKC mu)) was -2%. The inhibition at 1 µM (RET) was 5%, the inhibition at 1 µM (RET Y791F) was 5% and the inhibition at 1 µM (ROCK2) was 1%. The inhibition at 1 µM (RPS6KA2 (RSK3)) was 0%, the inhibition at 1 µM (RPS6KA4 (MSK2)) was -4% and the inhibition at 1 µM (SGKL (SGK3)) was 0%. For the same compound, the inhibition at 1 µM (STK3 (MST2)) was -2%.
